# Results reported in US5747544A, “Method of using pure 3R-3'R stereoisomer of zeaxanthin to treat or prevent retinal degeneration in humans” (priority 1995, dated 1998).
# Legend:
# retina = details: in vivo; cited from earlier work
# macular degeneration = details: general anti-oxidants; cited from earlier work
# [1] = test system: animals such as birds or fish; assay: Feeding of F. multivorum cell paste to animals such as birds or fish; assay type: in vivo; details: oral, cell paste of F. multivorum cells
# Source text: Although this option has not yet been fully evaluated, it is possible that the Flavobacterium multivorum cells themselves, in intact form and possibly even in a viable state, may be suitable for direct ingestion by humans. A substantial number of human foods (including cheese, yogurt, beer, etc.) contain viable or killed-but-intact microbial cells, and there is no known pathogenicity associated with the F. multivorum cells isolated by Applied Food Biotechnology, Inc. They were isolated from a relatively cold artesian waterway, and since they are adapted to living in cold water, they cannot survive or reproduce well at temperatures inside the human body. […] When fed directly in the form of a cell paste to animals such as birds or fish, these cells appear to be well-suited as delivery vehicles for zeaxanthin.
# chickens = details: cited from earlier work
# physchem = details: dry powder
# Source text: After roughly six months of storage in a relatively unprotected state (usually under normal refrigeration with moderately frequent removal; without containing any antioxidants, and without taking any precautions to prevent contact by atmospheric oxygen), a sample of the zeaxanthin preparation was sent for stereoisomeric analysis to Prof.
# [2] = di Mascio et al 1989; among known carotenoids; cited from earlier work
smiles,measurement,setting,value
CC1=C(/C=C/C(C)=C/C=C/C(C)=C/C=C/C=C(C)/C=C/C=C(C)/C=C/C2=C(C)C(=O)CCC2(C)C)C(C)(C)CCC1=O [Canthaxanthin],retinal toxicity,retina,has been shown to cause retinal maculopathy
"CC1=C(/C=C/C(C)=C/C=C/C(C)=C/CO)C(C)(C)CCC1 [Retinol (Vit. A), Retinol]",benefit in the retina against macular degeneration,macular degeneration,very limited
"CC1=C(/C=C/C(C)=C/C=C/C(C)=C/C=C/C=C(C)/C=C/C=C(C)/C=C/C2=C(C)C[C@@H](O)CC2(C)C)C(C)(C)C[C@H](O)C1 [Zeaxanthin, 3,3'-dihydroxy-β-β-carotene]",absorption and tissue deposition of zeaxanthin,[1],absorbed into the bloodstream and deposited into various tissues at expected and appropriate tissue locations
same,coloration of chickens,"chickens; Flavobacter cells (ATCC 21081, 21588) with their zeaxanthin fed, U.S. Pat. No. 3,891,504",caused suitable coloration
same,coloring potency relative to lutein,"chickens; per-weight basis, chicken skin and egg yolks",2-3 times
same,effectiveness in imparting color to animal flesh or chicken yolks relative to lutein,chickens; per-weight basis,several times more effective
same,remaining at 4380 h,physchem,92%
Cc1c(C)c2c(c(C)c1O)CCC(C)(CCCC(C)CCCC(C)CCCC(C)C)O2 (stereo not drawn) [alpha-Tocopherol],benefit in the retina against macular degeneration,macular degeneration,very limited
CC(C)=CCC/C(C)=C/C=C/C(C)=C/C=C/C(C)=C/C=C/C=C(C)/C=C/C=C(C)/C=C/C=C(\C)CCC=C(C)C [lycopene],singlet oxygen quenching,[2],best singlet oxygen quencher of all known carotenoids
"CC1=C(/C=C/C(C)=C/C=C/C(C)=C/C=C/C=C(C)/C=C/C=C(C)/C=C/C2=C(C)CCCC2(C)C)C(C)(C)CCC1 [β-Carotene, β-carotene]",benefit in the retina against macular degeneration,macular degeneration,very limited
